From PubChem BioAssay AID1963870 (Molecular Pharmacology Branch, DTP, NCI, 2024)

Tested on: 292921-168-R-J2-PDC KRAS tumor spheroid viability
Test: Anticancer human tumor 292921-168-R-J2-PDC patient-derived pancreatic carcinoma cell line growth inhibition [KRAS2]
Details: spheroids with HUVEC and MSC; for viability, T/C: stronger effect = lower value
Excerpt: Multicellular complex tumor spheroid response to RAS pathway inhibitors in combination with a targeted agents in patient-derived cell lines with oncogenic KRAS variants from multiple cancer types
A high-throughput screen of multi-cell type tumor spheroids was designed to identify active combinations of targeted small molecules and KRAS pathway inhibitors. Complex spheroids include a stromal component modeled by human endothelial cells (HUVEC) and fibroblasts modeled by human mesenchymal stem cells (MSCs). The concentration ranges selected for each drug and investigational agent were based upon clinically achievable concentrations if the clinical Cmax of the agent was known.
Compounds. The drugs and investigational agents: BI-3406 (NSC825286), BAY-293 (NSC824723), batoprotafib (TNO155; NSC825523), sotorasib (AMG 510; NSC818433), MRTX1257 (NSC819558), elimusertib (BAY 1895344; NSC800525), molibresib (GSK525762; NSC774829), temuterkib (LY3214996; NSC803410), venetoclax (NSC766270), alisertib (NSC759677), olaparib (NSC753686), talazoparib (NSC767125), erdafitinib (NSC781556), ipatasertib (NSC767898), cabozantinib (NSC761068), nintedanib (NSC756659), abemaciclib (NSC768073), docetaxel (NSC628503), trametinib (NSC758246), and sapanisertib (NSC764658) were obtained from the National Cancer Institute (NCI) Developmental Therapeutics Program Chemical Repository. The FDA-approved anticancer drug set is available from the Developmental Therapeutics Program. […] The stock solutions were prepared in dimethyl sulfoxide (DMSO, Sigma-Aldrich, St. Louis, MO, cat. D2650) at 800-fold the tested concentration and stored at -70 degrees C prior to their use. All drugs and investigational agents were tested over a range starting from a high concentration at or near the clinical Cmax and decreasing in half-log increments. If the clinical Cmax for an agent had not been determined, the highest concentration tested was 10 microM.
Cell Culture. All cells were maintained in an incubator at 37 degrees C and 5% CO2 with 95% humidity. The PDC lines were cultured according to standard operating procedures established by the NCI PDMR (https://pdmr.cancer.gov/sops/default.htm). Briefly, all PDCs were thawed and cultured in Matrigel-coated flasks prepared with a working solution of 1X Ham's F-12 nutrient mix, without supplementation (Invitrogen, Waltham, MA, cat. 11765054), 100 U/mL penicillin-streptomycin (Invitrogen, cat. 15140122), and 2.5% Matrigel (Corning Inc., Corning, NY, cat. 354248) for the first three passages. All PDCs were cultured in complete DMEM/F-12 media containing advanced DMEM/F-12 (Invitrogen, cat. 12634028), 4.9% defined fetal bovine serum, heat inactivated (HyClone Laboratories Inc., Logan, UT, cat. SH30070.03HI), 389 ng/mL hydrocortisone (Sigma-Aldrich, cat. H4001), 9.7 ng/mL human EGF recombinant protein (Invitrogen, cat. PHG0313), 23.4 microg/mL adenine (Sigma-Aldrich, cat. A2786), 97.3 U/mL penicillin-streptomycin (Invitrogen, cat. 15140122), 1.9 mM L-glutamine (Invitrogen, cat. 25030081), and 9.7 microM Y-27632 dihydrochloride (Tocris Bioscience, Bristol, United Kingdom, cat. 1254). The PDCs were cultured in complete DMEM/F12 media without 9.7 microM Y-27632 dihydrochloride for at least two passages prior to the screen. The established cell line HOP-62 was cultured in RPMI 1640 medium, HEPES (Invitrogen, cat. 22400105) with 10% defined fetal bovine serum (HyClone Laboratories Inc., cat. SH30070.03) and 2 mM L-glutamine (Invitrogen, cat. 25030081). The pooled donor HUVEC were cultured in endothelial cell growth medium 2 (PromoCell, Heidelberg, Germany, cat. C-22011) and the hMSC were cultured in mesenchymal stem cell growth medium 2 (PromoCell, cat. C-28009). For all experiments, HUVEC and hMSC were used at passages </=5, while the malignant cell lines were used at passages </=15. […]

[1] = curve of first compound, second compound 0.1 µM
[2] = curve of first compound, second compound 0.316 µM
[3] = curve of first compound, second compound 1 µM
[4] = curve of first compound, second compound 3.16 µM
[5] = second compound 0.1 µM, first compound 0.00316 µM
[6] = second compound 0.1 µM, first compound 0.01 µM
[7] = second compound 0.1 µM, first compound 0.0316 µM
[8] = second compound 0.1 µM, first compound 0.1 µM
[9] = second compound 0.316 µM, first compound 0.00316 µM
[10] = second compound 0.316 µM, first compound 0.01 µM
[11] = second compound 0.316 µM, first compound 0.0316 µM
[12] = second compound 0.316 µM, first compound 0.1 µM
[13] = second compound 1 µM, first compound 0.00316 µM
[14] = second compound 1 µM, first compound 0.01 µM
[15] = second compound 1 µM, first compound 0.0316 µM
[16] = second compound 1 µM, first compound 0.1 µM
[17] = second compound 3.16 µM, first compound 0.00316 µM
[18] = second compound 3.16 µM, first compound 0.01 µM
[19] = second compound 3.16 µM, first compound 0.0316 µM
[20] = second compound 3.16 µM, first compound 0.1 µM
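Note: drug exposure lasted seven days after spheroids formed for three days.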
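Throughout, for viability, T/C: percent of DMSO vehicle control viability which is 100%.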

Structure (SMILES) | IC50 [1] | IC50 [2] | IC50 [3] | IC50 [4] | viability, T/C [5] | viability, T/C [6] | viability, T/C [7] | viability, T/C [8] | viability, T/C [9] | viability, T/C [10] | viability, T/C [11] | viability, T/C [12] | viability, T/C [13] | viability, T/C [14] | viability, T/C [15] | viability, T/C [16] | viability, T/C [17] | viability, T/C [18] | viability, T/C [19] | viability, T/C [20] | also measured
CC(C)n1nc(-c2ccc3oc(N)nc3c2)c2c(N)ncnc21 + C=CC(=O)N1CCN(c2nc(OCC3CCCN3C)nc3c2CCN(c2cccc4cccc(C)c24)C3)CC1CC#N | 2.84 nM | 1.07 nM | < 0.316 nM | < 0.316 nM | 47.3% | 31% | 21.4% | 20.9% | 36.9% | 28.6% | 21.6% | 18.5% | 23.8% | 17.8% | 15.7% | 13.8% | 0.82% | 0.33% | 0.47% | 0.73% | IC50 (curve of first compound, second compound 0.0316 µM): 2.49 nM; viability, T/C (second compound 0.0316 µM, first compound 0.000316 µM): 78.8%; viability, T/C (second compound 0.0316 µM, first compound 0.001 µM): 62.7%; viability, T/C (second compound 0.0316 µM, first compound 0.00316 µM): 48.3%; viability, T/C (second compound 0.0316 µM, first compound 0.01 µM): 30.8%; viability, T/C (second compound 0.0316 µM, first compound 0.0316 µM): 25.3%; viability, T/C (second compound 0.0316 µM, first compound 0.1 µM): 21.1%; viability, T/C (second compound 0.1 µM, first compound 0.000316 µM): 83.3%; viability, T/C (second compound 0.1 µM, first compound 0.001 µM): 70.8%; viability, T/C (second compound 0.316 µM, first compound 0.000316 µM): 70.2%; viability, T/C (second compound 0.316 µM, first compound 0.001 µM): 50.5%; viability, T/C (second compound 1 µM, first compound 0.000316 µM): 30.9%; viability, T/C (second compound 1 µM, first compound 0.001 µM): 25.5%; viability, T/C (second compound 3.16 µM, first compound 0.000316 µM): 1.12%; viability, T/C (second compound 3.16 µM, first compound 0.001 µM): 0.57%
CCN1CCN(Cc2ccc(Nc3ncc(F)c(-c4cc(F)c5nc(C)n(C(C)C)c5c4)n3)nc2)CC1 + C=CC(=O)N1CCN(c2nc(=O)n(-c3c(C)ccnc3C(C)C)c3nc(-c4c(O)cccc4F)c(F)cc23)C(C)C1 | 58.1 nM | 85.6 nM | 108 nM | 11.3 nM | 95% | 78% | 54.4% | 45.6% | 95.7% | 82.4% | 64.4% | 47.6% | 96.8% | 82% | 66.2% | 50.4% | 57.7% | 50% | 45% | 34.6% | IC50 (curve of first compound, second compound 10 µM): < 3.16 nM; viability, T/C (second compound 0.1 µM, first compound 0.316 µM): 30.5%; viability, T/C (second compound 0.1 µM, first compound 1 µM): 22.1%; viability, T/C (second compound 0.316 µM, first compound 0.316 µM): 35.3%; viability, T/C (second compound 0.316 µM, first compound 1 µM): 26.7%; viability, T/C (second compound 1 µM, first compound 0.316 µM): 37.2%; viability, T/C (second compound 1 µM, first compound 1 µM): 22.6%; viability, T/C (second compound 3.16 µM, first compound 0.316 µM): 28.9%; viability, T/C (second compound 3.16 µM, first compound 1 µM): 21.2%; viability, T/C (second compound 10 µM, first compound 0.00316 µM): 18.5%; viability, T/C (second compound 10 µM, first compound 0.01 µM): 23.9%; viability, T/C (second compound 10 µM, first compound 0.0316 µM): 23.7%; viability, T/C (second compound 10 µM, first compound 0.1 µM): 22.9%; viability, T/C (second compound 10 µM, first compound 0.316 µM): 20.4%; viability, T/C (second compound 10 µM, first compound 1 µM): 6.06%
CC(=O)Nc1cccc(-n2c(=O)n(C3CC3)c(=O)c3c(Nc4ccc(I)cc4F)n(C)c(=O)c(C)c32)c1 |  |  |  |  |  |  |  |  |  |  |  |  |  |  |  |  |  |  |  |  | viability, T/C (compound 0.0001 µM): 73.6% [middle of 5 runs]; viability, T/C (compound 0.000316 µM): 51.5% [middle of 5 runs]; viability, T/C (compound 0.001 µM): 28.9% [middle of 5 runs]; viability, T/C (compound 0.00316 µM): 17.8% [middle of 5 runs]; viability, T/C (compound 0.01 µM): 12.7% [middle of 5 runs]; viability, T/C (compound 0.0316 µM): 8.87% [middle of 4 runs]; IC50 (curve of compound): 0.328 nM [middle of 5 runs]
